Data from patent EP4603105A1, “PHARMACEUTICAL COMPOSITION CONTAINING CYCLIC COMPOUND HAVING SELECTIVE KRAS INHIBITORY EFFECT AGAINST HRAS AND NRAS” (CHUGAI SEIYAKU KABUSHIKI KAISHA, priority 2022, dated 2024).

Legend:
[1] = molecular target: GDP-bound NRAS wild-type protein (Homo sapiens, UniProt P01111); assay: Binding to NRAS by surface plasmon resonance (SPR), KD and KD ratio to KRAS; details: ratio of the KD value with respect to GDP-bound NRAS wild-type protein to the KD value with respect to KRAS
Chain of GDP-bound NRAS wild-type protein (P01111 whole entry): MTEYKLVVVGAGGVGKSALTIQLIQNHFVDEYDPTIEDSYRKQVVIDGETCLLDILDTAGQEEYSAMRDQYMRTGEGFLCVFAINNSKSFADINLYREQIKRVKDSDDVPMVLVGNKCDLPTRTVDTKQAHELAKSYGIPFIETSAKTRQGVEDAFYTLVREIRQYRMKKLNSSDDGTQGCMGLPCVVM
Method in brief: (§1)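 SPR, 30°C: Avi-biotin RAS·GDP captured via Biotin CAPture (~100–300 RU); running buffer HBS pH 7.4, 1 mM DTT, 10 mM MgCl2, 0.01% Tween 20, 10 µM GDP, 4% DMSO. Single-cycle kinetics, 100 µL/min, 75 s injections; 1:1 model → KD.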

HRAS wild-type protein = HRAS wild-type protein (Homo sapiens, UniProt P01112); assay: Binding to HRAS by surface plasmon resonance (SPR), KD and KD ratio to KRAS; details: ratio of the KD value with respect to HRAS wild-type protein to the KD value with respect to KRAS
Chain of HRAS wild-type protein (P01112 whole entry): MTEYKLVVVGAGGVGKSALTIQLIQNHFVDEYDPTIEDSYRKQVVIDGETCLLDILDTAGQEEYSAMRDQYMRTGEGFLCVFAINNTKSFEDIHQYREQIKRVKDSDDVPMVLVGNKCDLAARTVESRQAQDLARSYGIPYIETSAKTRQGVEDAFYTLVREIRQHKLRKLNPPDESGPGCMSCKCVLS
Method in brief: as §1

[2] = tested on: human lung cancer strain NCI-H441; format: cell-based
Method in brief: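 Proliferation was scored by […] measured after the reagent was added to cultures kept at 37°C in 5% carbon dioxide.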

Row | Structure (SMILES) | NRAS /KRAS [1] | HRAS /KRAS (HRAS wild-type protein) | IC50 [2] [nM]
1 | CC[C@H](C)[C@@H]1NC(=O)[C@H](CC(C)C)N(C)C(=O)C[C@@H](C(=O)N2CCOCC2)N(CC)C(=O)[C@H](C2CCCC2)N(C)C(=O)C2(CCCC2)NC(=O)[C@@H]2CCCN2C(=O)[C@H](CCc2cc(F)c(C(F)(F)F)c(F)c2)NC(=O)CN(C)C(=O)[C@H](Cc2ccc(C(F)(F)F)cc2)N2CCCCC[C@@H](C2=O)N(C)C(=O)CN(C)C1=O [PP0477] | A (a compound having 10 or more and less than 20 is denoted as A) | A (a compound having 10 or more and less than 20 is denoted as A) | 139
2 | CC[C@H](C)[C@@H]1NC(=O)[C@H](CC(C)C)N(C)C(=O)C[C@@H](C(=O)N2CCOCC2)NC(=O)[C@H](C2CCCC2)N(C)C(=O)C2(CCCC2)NC(=O)[C@@H]2CCCN2C(=O)[C@H](CCc2cc(F)c(C(F)(F)F)c(F)c2)NC(=O)CN(C)C(=O)[C@H](Cc2ccc(C(F)(F)F)cc2)N2CCCCC[C@@H](C2=O)N(C)C(=O)CN(C)C1=O [PP0479] | B (a compound having 3 or more and less than 10 is denoted as B) | B (a compound having 3 or more and less than 10 is denoted as B) | 2440
3 | CC[C@H](C)[C@@H]1NC(=O)[C@H](CC(C)C)N(C)C(=O)C[C@@H](C(=O)N2CCOCC2)N(C)C(=O)[C@H](C2CCCC2)N(C)C(=O)C2(CCCC2)NC(=O)[C@@H]2CCCN2C(=O)[C@H](CCc2cc(F)c(C(F)(F)F)c(F)c2)NC(=O)CN(C)C(=O)[C@H](Cc2ccc(C(F)(F)F)cc2)N2CCCCC[C@@H](C2=O)N(C)C(=O)[C@H](C)NC1=O [PP0481] | B (a compound having 3 or more and less than 10 is denoted as B) | B (a compound having 3 or more and less than 10 is denoted as B) | > 1000
4 | CC[C@H](C)[C@@H]1NC(=O)[C@H](CC(C)C)N(C)C(=O)C[C@@H](C(=O)N2CCOCC2)N(C)C(=O)[C@H](C2CCCC2)N(C)C(=O)C2(CCCC2)NC(=O)[C@@H]2CCCN2C(=O)[C@H](CCc2cc(F)c(C(F)(F)F)c(F)c2)NC(=O)CN(C)C(=O)[C@H](Cc2ccc(C(F)(F)F)cc2)N2CCCCC[C@@H](C2=O)N(C)C(=O)CN(CC)C1=O [PP0483] | B (a compound having 3 or more and less than 10 is denoted as B) | B (a compound having 3 or more and less than 10 is denoted as B) | 525
5 | CC[C@H](C)[C@@H]1NC(=O)[C@H](CC(C)C)N(C)C(=O)C[C@@H](C(=O)N2CCOCC2)N(C)C(=O)[C@H](C2CCCC2)N(C)C(=O)C2(CCCC2)NC(=O)[C@@H]2CCCN2C(=O)[C@H](CCc2cc(F)c(C(F)(F)F)c(F)c2)NC(=O)CN(C)C(=O)[C@H](Cc2ccc(C(F)(F)F)cc2)N2CCCCC[C@@H](C2=O)N(C)C(=O)[C@@H]2CCN2C1=O [PP0484] | A (a compound having 10 or more and less than 20 is denoted as A) | B (a compound having 3 or more and less than 10 is denoted as B) | 165
6 | CC[C@H](C)[C@@H]1NC(=O)[C@H](CC(C)C)N(C)C(=O)C[C@@H](C(=O)N2CCOCC2)N(C)C(=O)[C@H](C2CCCC2)N(C)C(=O)C2(CCCC2)NC(=O)[C@@H]2CCCN2C(=O)[C@H](CCc2cc(F)c(C(F)(F)F)c(F)c2)NC(=O)CN(C)C(=O)[C@H](Cc2ccc(C(F)(F)F)cc2)N2CCCCC[C@@H](C2=O)N(C)C(=O)[C@@H]2CCCN2C1=O [PP0485] | A (a compound having 10 or more and less than 20 is denoted as A) | B (a compound having 3 or more and less than 10 is denoted as B) | 1260
7 | CC[C@H](C)[C@@H]1NC(=O)[C@H](C)N(C)C(=O)C[C@@H](C(=O)N2CCOCC2)N(C)C(=O)[C@H](C2CCCC2)N(C)C(=O)C2(CCCC2)NC(=O)[C@@H]2CCCN2C(=O)[C@H](CCc2cc(F)c(C(F)(F)F)c(F)c2)NC(=O)CN(C)C(=O)[C@H](Cc2ccc(C(F)(F)F)cc2)N2CCCCC[C@@H](C2=O)N(C)C(=O)CN(C)C1=O [PP0487] | B (a compound having 3 or more and less than 10 is denoted as B) | B (a compound having 3 or more and less than 10 is denoted as B) | 260
8 | CC[C@H](C)[C@@H]1NC(=O)[C@H](CC)N(C)C(=O)C[C@@H](C(=O)N2CCOCC2)N(C)C(=O)[C@H](C2CCCC2)N(C)C(=O)C2(CCCC2)NC(=O)[C@@H]2CCCN2C(=O)[C@H](CCc2cc(F)c(C(F)(F)F)c(F)c2)NC(=O)CN(C)C(=O)[C@H](Cc2ccc(C(F)(F)F)cc2)N2CCCCC[C@@H](C2=O)N(C)C(=O)CN(C)C1=O [PP0488] | A (a compound having 10 or more and less than 20 is denoted as A) | B (a compound having 3 or more and less than 10 is denoted as B) | 54.3
9 | CC[C@H](C)[C@@H]1NC(=O)[C@H](CC(C)C)N(C)C(=O)C[C@@H](C(=O)N2CCOCC2)N(C)C(=O)[C@H](C2CCCC2)N(C)C(=O)C2(CCCC2)NC(=O)[C@@H]2CCCN2C(=O)[C@H](CCc2cc(F)c(C(F)(F)F)c(F)c2)NC(=O)CN(C)C(=O)[C@H](Cc2ccc(C(F)(F)F)cc2)N2CCCCC[C@@H](C2=O)N(C)C(=O)CN(C)C1=O [PP0490] | B (a compound having 3 or more and less than 10 is denoted as B) | B (a compound having 3 or more and less than 10 is denoted as B) | 50.5
10 | CC[C@H](C)[C@@H]1NC(=O)[C@H](CC(C)C)N(C)C(=O)C[C@@H](C(=O)N2CCOCC2)N(C)C(=O)[C@H](C2CCCC2)N(C)C(=O)C2(CCCC2)NC(=O)[C@@H]2CC(F)(F)CN2C(=O)[C@H](CCc2cc(F)c(C(F)(F)F)c(F)c2)NC(=O)CN(C)C(=O)[C@H](Cc2ccc(C(F)(F)F)cc2)N2CCCCC[C@@H](C2=O)N(C)C(=O)CN(C)C1=O [PP0491] | B (a compound having 3 or more and less than 10 is denoted as B) | B (a compound having 3 or more and less than 10 is denoted as B) | 33.1
11 | CCO[C@@H]1C[C@H]2C(=O)NC3(CCCC3)C(=O)N(C)[C@@H](C3CCCC3)C(=O)N(C)[C@H](C(=O)N3CCOCC3)CC(=O)N(C)[C@@H](CC(C)C)C(=O)N[C@@H]([C@@H](C)CC)C(=O)N(C)CC(=O)N(C)[C@H]3CCCCCN(C3=O)[C@@H](Cc3ccc(C(F)(F)F)cc3)C(=O)N(C)CC(=O)N[C@@H](CCc3cc(F)c(C(F)(F)F)c(F)c3)C(=O)N2C1 [PP0492] | B (a compound having 3 or more and less than 10 is denoted as B) | B (a compound having 3 or more and less than 10 is denoted as B) | 31.9
12 | CC[C@H](C)[C@@H]1NC(=O)[C@H](CC(C)C)N(C)C(=O)C[C@@H](C(=O)N2CCOCC2)N(C)C(=O)[C@H](C2CCCC2)N(C)C(=O)C2(CCCC2)NC(=O)[C@@H]2CC(=O)CN2C(=O)[C@H](CCc2cc(F)c(C(F)(F)F)c(F)c2)NC(=O)CN(C)C(=O)[C@H](Cc2ccc(C(F)(F)F)cc2)N2CCCCC[C@@H](C2=O)N(C)C(=O)CN(C)C1=O [PP0493] | B (a compound having 3 or more and less than 10 is denoted as B) | B (a compound having 3 or more and less than 10 is denoted as B) | 628
